For 15 compounds, IC50 results are on record in patent publication US8354431B2, “Aryl carboxylic acid cyclohexyl amide derivatives” (Novartis AG, priority 2007, dated 2013).

One assay deals with T1, hCCR2b (Homo sapiens, UniProt P41597).
T1 construct: expressed in transfected cells; host or cells: CHO-dukX
T1 sequence (P41597 1-360 isoform P41597-2): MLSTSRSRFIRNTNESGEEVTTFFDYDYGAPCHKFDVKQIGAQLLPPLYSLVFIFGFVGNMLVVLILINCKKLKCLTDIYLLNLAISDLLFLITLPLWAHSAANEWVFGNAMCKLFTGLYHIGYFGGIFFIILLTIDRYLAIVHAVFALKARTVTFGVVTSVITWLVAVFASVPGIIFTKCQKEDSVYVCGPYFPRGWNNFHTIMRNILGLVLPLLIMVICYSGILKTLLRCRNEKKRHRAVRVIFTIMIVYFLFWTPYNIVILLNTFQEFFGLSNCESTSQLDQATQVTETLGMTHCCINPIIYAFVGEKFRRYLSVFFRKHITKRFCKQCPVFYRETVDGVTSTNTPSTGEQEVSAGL
Nature of the assay: CCR2 membrane binding assay (SPA, [125I] MCP-1). To be noted: table does not name the assay; b437 says 'in these assays'. The protocol: Transfected CHO-dukX cells stably expressing the hCCR2b gene are grown in MEM alpha medium to a confluency of between 70 and 80%. After discarding the medium, 30 ml ice-cold physiological buffer solution containing 1 mM EDTA are added and the cells removed from the plate using a scraper. The cell suspension is centrifuged at 800 g for 10′ at 4° C. and the cell pellet resuspended in buffer. Cell lysis is done using a Polytron PTI300D instrument at 28 000 RPM for 2 times 30 seconds on ice. Membranes are collected by centrifugation at 42 000 g for 20 minutes at 4° C. and subjected to a second round of lysis (Polytron, 28 000 RPM, 2×30 seconds on ice). Following centrifugation at 42 000 g for 20 minutes at 4° C. the membranes are resuspended in buffer at a protein concentration of 2 mg/ml and stored at −80° C. Ten millimolar stock solutions of test compounds in 100% DMSO are prepared. Test compounds are further diluted in buffer to yield the four-fold concentrated solutions for the tests that assayed a range of 10^−10 to 10^−5 M. The SPA assay is performed in a final volume of 200 μl per well in 96 well plates. The components are added per well in the following order: • 50 μl Buffer (+/−test compound) • 50 μl Wheat germ agglutinin-SPA beads (1.25 mg/well) in buffer • 50 μl CCR2B membrane suspension diluted with buffer to 0.04 mg/ml (2 μg/well), alternatively 50,000 cells per well • 50 μl [^125I] MCP-1 in buffer (60 pM final concentration, 2.5 μCi/plate)
After addition of all components the plate is sealed and incubated for 90 minutes at room temperature with constant shaking. Following incubation the plate is centrifuged at 1000 RPM in a Sorvall RC3B centrifuge for 4 minutes at room temperature and counted for 3 minutes per well in a TOP COUNT instrument (Packard). The quench-corrected counts are used for the analysis of radioligand binding.

A further assay deals with T2, Human CCR5 (Homo sapiens, UniProt P51681).
T2 construct: expressed in transfected cells; host or cells: CHO K1
T2 sequence (P51681 whole entry): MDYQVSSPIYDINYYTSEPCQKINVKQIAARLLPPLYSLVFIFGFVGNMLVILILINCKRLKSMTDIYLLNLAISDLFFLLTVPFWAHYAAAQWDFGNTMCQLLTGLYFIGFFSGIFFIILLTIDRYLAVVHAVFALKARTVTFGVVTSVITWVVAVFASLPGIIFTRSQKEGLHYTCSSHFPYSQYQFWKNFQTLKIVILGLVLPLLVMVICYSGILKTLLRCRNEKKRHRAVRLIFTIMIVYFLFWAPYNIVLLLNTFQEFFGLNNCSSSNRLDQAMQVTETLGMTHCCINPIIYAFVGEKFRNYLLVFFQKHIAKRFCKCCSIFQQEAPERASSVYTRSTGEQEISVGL
Description: CCR5 membrane binding assay ([I-125]MIP-1α). To be noted: table does not name the assay; b437 says 'in these assays'. The method, then:
Human CCR5 is used to generate stable transfectants in CHO K1 cells. Membranes prepared from these CCR5 transfectants are used in a radioligand binding assay using 125-1-MIP-1α as a ligand and the compounds of formula I are tested for inhibitory activity. The data are reported as IC50, i.e. the concentration of compound required to achieve 50% inhibition of [I-125]MIP-1α binding. In this assay, compounds of formula I have an IC50 between 0.004 and 10 μM.

For `COCC(C)Oc1ccc2c(COc3cccc4[nH]c(C(=O)N[C@H]5CC[C@](O)(CCN6CC[C@H](O)[C@@H](C)C6)CC5)cc34)coc2c1` (mixture of isomers) [Example 17, 4-[6-((RS)-2-Methoxy-1-methyl-ethoxy)-benzofuran-3-ylmethoxy]-1H-indole-2-carboxylic acid {4-hydroxy-4-[2-((3S,4S)-4-hydroxy-3-methyl-piperidin-1-yl)-ethyl]-cyclohexyl}-amide], the IC50 at hCCR2b was 0.8 nM.

On to `C[C@H]1CN(CC[C@]2(O)CC[C@@H](NC(=O)c3cc4c(OCC5CCC5)cccc4[nH]3)CC2)CC[C@@H]1O` [Example 1, 4-Cyclobutylmethoxy-1H-indole-2-carboxylic acid {4-hydroxy-4-[2-((3S,4S)-4-hydroxy-3-methyl-piperidin-1-yl)-ethyl]-cyclohexyl}-amide], for which the 50% inhibitory concentration (IC50) at hCCR2b turned out to be 12 nM; at Human CCR5, 13.2 nM.

On Human CCR5, `C[C@H]1CN(CC[C@]2(O)CC[C@@H](NC(=O)c3cc4c(OCc5ccoc5)cccc4[nH]3)CC2)CC[C@@H]1O` [Example 3, 4-(Furan-3-ylmethoxy)-1H-indole-2-carboxylic acid {4-hydroxy-4-[2-((3S,4S)-4-hydroxy-3-methyl-piperidin-1-yl)-ethyl]-cyclohexyl}-amide] had an IC50 of 13.8 nM.

Consider `C[C@H]1CN(CC[C@]2(O)CC[C@@H](NC(=O)c3cc4c(OCc5coc6c5C(=O)CCC6)cccc4[nH]3)CC2)CC[C@@H]1O` [Example 6, 4-(4-Oxo-4,5,6,7-tetrahydro-benzofuran-3-ylmethoxy)-1H-indole-2-carboxylic acid {4-hydroxy-4-[2-((3S,4S)-4-hydroxy-3-methyl-piperidin-1-yl)-ethyl]-cyclohexyl}-amide], for which the figures for the concentration for half-maximal inhibition (IC50) on hCCR2b and at Human CCR5 were 24.3 nM and 27 nM, respectively.

For `C[C@H]1CN(CC[C@]2(O)CC[C@@H](NC(=O)c3cc4c(OCc5coc6c5C(=O)CC(C)(C)C6)cccc4[nH]3)CC2)CC[C@@H]1O` [Example 7, 4-(6,6-Dimethyl-4-oxo-4,5,6,7-tetrahydro-benzofuran-3-ylmethoxy)-1H-indole-2-carboxylic acid {4-hydroxy-4-[2-((3S,4S)-4-hydroxy-3-methyl-piperidin-1-yl)-ethyl]-cyclohexyl}-amide], the figures for the IC50 on hCCR2b and on Human CCR5 were 13.8 nM and 11.9 nM, respectively.

Regarding `C[C@H]1CN(CC[C@]2(O)CC[C@@H](NC(=O)c3cc4c(OC[C@@H]5COc6ccccc65)cccc4[nH]3)CC2)CC[C@@H]1O` [Example 8, 4-[(S)-1-(2,3-Dihydro-benzofuran-3-yl)methoxy]-1H-indole-2-carboxylic acid {4-hydroxy-4-[2-((3S,4S)-4-hydroxy-3-methyl-piperidin-1-yl)-ethyl]-cyclohexyl}-amide], the figures for the 50% inhibitory concentration (IC50) at hCCR2b and at Human CCR5 were 10.8 nM and 58.5 nM, respectively.

On to `COc1cccc2occ(COc3cccc4[nH]c(C(=O)N[C@H]5CC[C@](O)(CCN6CC[C@H](O)[C@@H](C)C6)CC5)cc34)c12` [Example 10, 4-(4-Methoxy-benzofuran-3-ylmethoxy)-1H-indole-2-carboxylic acid {4-hydroxy-4-[2-((3S,4S)-4-hydroxy-3-methyl-piperidin-1-yl)-ethyl]-cyclohexyl}-amide], for which the half-inhibitory concentration (IC50) at hCCR2b was 1.5 nM; at Human CCR5, 10.6 nM.

With `C[C@H]1CN(CC[C@]2(O)CC[C@@H](NC(=O)c3cc4c(OCc5coc6cc(F)cc(F)c56)cccc4[nH]3)CC2)CC[C@@H]1O` [Example 11, 4-(4,6-Difluoro-benzofuran-3-ylmethoxy)-1H-indole-2-carboxylic acid {4-hydroxy-4-[2-((3S,4S)-4-hydroxy-3-methyl-piperidin-1-yl)-ethyl]-cyclohexyl}-amide], on hCCR2b, the half-inhibitory concentration (IC50) came to 2.3 nM.

As to `C[C@H]1CN(CC[C@]2(O)CC[C@@H](NC(=O)c3cc4c(OCc5coc6ccc(Cl)cc56)cccc4[nH]3)CC2)CC[C@@H]1O` [Example 12, 4-(5-Chloro-benzofuran-3-ylmethoxy)-1H-indole-2-carboxylic acid {4-hydroxy-4-[2-((3S,4S)-4-hydroxy-3-methyl-piperidin-1-yl)-ethyl]-cyclohexyl}-amide], the IC50 came to 0.2 nM at hCCR2b and 0.5 nM at Human CCR5.

Regarding `COc1ccc2c(COc3cccc4[nH]c(C(=O)N[C@H]5CC[C@](O)(CCN6CC[C@H](O)[C@@H](C)C6)CC5)cc34)coc2c1` [Example 13, 4-(6-Methoxy-benzofuran-3-ylmethoxy)-1H-indole-2-carboxylic acid {4-hydroxy-4-[2-((3S,4S)-4-hydroxy-3-methyl-piperidin-1-yl)-ethyl]-cyclohexyl}-amide], the concentration for half-maximal inhibition (IC50) on hCCR2b is 2.7 nM; on Human CCR5, 5.8 nM.

With `COCCCOc1ccc2c(COc3cccc4[nH]c(C(=O)N[C@H]5CC[C@](O)(CCN6CC[C@H](O)[C@@H](C)C6)CC5)cc34)coc2c1` [Example 19, 4-[6-(3-Methoxy-propoxy)-benzofuran-3-ylmethoxy]-1H-indole-2-carboxylic acid {4-hydroxy-4-[2-((3S,4S)-4-hydroxy-3-methyl-piperidin-1-yl)-ethyl]-cyclohexyl}-amide], the IC50 on hCCR2b was found to be 0.7 nM.

With `CCOCCCOc1ccc2c(COc3cccc4[nH]c(C(=O)N[C@H]5CC[C@](O)(CCN6CC[C@H](O)[C@@H](C)C6)CC5)cc34)coc2c1` [Example 20, 4-[6-(3-Ethoxy-propoxy)-benzofuran-3-ylmethoxy]-1H-indole-2-carboxylic acid {4-hydroxy-4-[2-((3S,4S)-4-hydroxy-3-methyl-piperidin-1-yl)-ethyl]-cyclohexyl}-amide], the figures for the IC50 on hCCR2b and on Human CCR5 were 0.9 nM and 3.2 nM, respectively.

As for `C[C@H]1CN(CC[C@]2(O)CC[C@@H](NC(=O)c3cc4c(OCc5coc6cc(O[C@H]7CCOC7)ccc56)cccc4[nH]3)CC2)CC[C@@H]1O` [Example 21, 4-{6-[(S)-(Tetrahydro-furan-3-yl)oxy]-benzofuran-3-ylmethoxy}-1H-indole-2-carboxylic acid {4-hydroxy-4-[2-((3S,4S)-4-hydroxy-3-methyl-piperidin-1-yl)-ethyl]-cyclohexyl}-amideamide], the half-inhibitory concentration (IC50) at hCCR2b was 1.6 nM; at Human CCR5, 9 nM.

At hCCR2b, `C[C@H]1CN(CC[C@]2(O)CC[C@@H](NC(=O)c3cc4c(OCc5coc6cc(F)ccc56)cccc4[nH]3)CC2)CC[C@@H]1O` [Example 22, 4-(6-Fluoro-benzofuran-3-ylmethoxy)-1H-indole-2-carboxylic acid {4-hydroxy-4-[2-((3S,4S)-4-hydroxy-3-methyl-piperidin-1-yl)-ethyl]-cyclohexyl}-amide] came in with a half-maximal inhibitory concentration (IC50) of 7.4 nM.

For `COc1cccc2c(COc3cccc4[nH]c(C(=O)N[C@H]5CC[C@](O)(CCN6CC[C@H](O)[C@@H](C)C6)CC5)cc34)coc12` [Example 23, 4-(7-Methoxy-benzofuran-3-ylmethoxy)-1H-indole-2-carboxylic acid {4-hydroxy-4-[2-((3S,4S)-4-hydroxy-3-methyl-piperidin-1-yl)-ethyl]-cyclohexyl}-amide], the half-inhibitory concentration (IC50) was determined as 12.5 nM on hCCR2b and 12.1 nM at Human CCR5.
